In ChEMBL document CHEMBL3991601, “The target landscape of clinical kinase drugs” (Science, 2017):
Where a name gives a salt, the structure may show the parent alone. Calls of active or inactive are those of the source. On the calls: in the data inactive means no Kd found up to 30 µM.

Columns and labels:
[1] = target: Misshapen-like kinase 1 (Homo sapiens, UniProt Q8N4C8)
[2] = target: T1, Dual specificity protein kinase TTK (Homo sapiens, UniProt P33981)
T1 sequence (P33981 whole entry): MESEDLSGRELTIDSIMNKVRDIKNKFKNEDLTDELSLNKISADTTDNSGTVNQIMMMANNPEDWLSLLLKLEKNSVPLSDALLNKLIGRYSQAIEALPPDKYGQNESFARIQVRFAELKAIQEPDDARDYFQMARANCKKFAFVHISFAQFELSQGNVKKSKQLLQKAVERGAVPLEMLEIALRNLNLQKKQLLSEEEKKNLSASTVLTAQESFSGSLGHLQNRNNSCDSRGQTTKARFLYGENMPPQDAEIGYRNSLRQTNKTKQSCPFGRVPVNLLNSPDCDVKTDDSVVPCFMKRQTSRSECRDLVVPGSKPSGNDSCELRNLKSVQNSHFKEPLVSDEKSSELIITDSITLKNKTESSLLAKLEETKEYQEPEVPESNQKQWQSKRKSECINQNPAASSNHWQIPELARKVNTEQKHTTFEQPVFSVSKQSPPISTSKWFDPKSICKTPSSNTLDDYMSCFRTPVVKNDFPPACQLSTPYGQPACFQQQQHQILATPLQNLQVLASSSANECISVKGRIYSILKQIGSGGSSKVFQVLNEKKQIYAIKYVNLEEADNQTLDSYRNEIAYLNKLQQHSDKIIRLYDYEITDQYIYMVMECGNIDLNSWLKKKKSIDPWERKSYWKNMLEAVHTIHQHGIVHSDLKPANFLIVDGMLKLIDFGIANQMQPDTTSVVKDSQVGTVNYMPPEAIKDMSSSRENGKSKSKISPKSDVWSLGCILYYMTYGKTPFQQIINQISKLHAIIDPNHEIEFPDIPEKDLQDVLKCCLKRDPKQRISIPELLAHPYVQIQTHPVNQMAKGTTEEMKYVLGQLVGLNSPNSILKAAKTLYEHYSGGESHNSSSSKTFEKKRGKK

[3] = target: T2, Cyclin-dependent kinase-like 5 (Homo sapiens, UniProt O76039)
T2 sequence (O76039 whole entry): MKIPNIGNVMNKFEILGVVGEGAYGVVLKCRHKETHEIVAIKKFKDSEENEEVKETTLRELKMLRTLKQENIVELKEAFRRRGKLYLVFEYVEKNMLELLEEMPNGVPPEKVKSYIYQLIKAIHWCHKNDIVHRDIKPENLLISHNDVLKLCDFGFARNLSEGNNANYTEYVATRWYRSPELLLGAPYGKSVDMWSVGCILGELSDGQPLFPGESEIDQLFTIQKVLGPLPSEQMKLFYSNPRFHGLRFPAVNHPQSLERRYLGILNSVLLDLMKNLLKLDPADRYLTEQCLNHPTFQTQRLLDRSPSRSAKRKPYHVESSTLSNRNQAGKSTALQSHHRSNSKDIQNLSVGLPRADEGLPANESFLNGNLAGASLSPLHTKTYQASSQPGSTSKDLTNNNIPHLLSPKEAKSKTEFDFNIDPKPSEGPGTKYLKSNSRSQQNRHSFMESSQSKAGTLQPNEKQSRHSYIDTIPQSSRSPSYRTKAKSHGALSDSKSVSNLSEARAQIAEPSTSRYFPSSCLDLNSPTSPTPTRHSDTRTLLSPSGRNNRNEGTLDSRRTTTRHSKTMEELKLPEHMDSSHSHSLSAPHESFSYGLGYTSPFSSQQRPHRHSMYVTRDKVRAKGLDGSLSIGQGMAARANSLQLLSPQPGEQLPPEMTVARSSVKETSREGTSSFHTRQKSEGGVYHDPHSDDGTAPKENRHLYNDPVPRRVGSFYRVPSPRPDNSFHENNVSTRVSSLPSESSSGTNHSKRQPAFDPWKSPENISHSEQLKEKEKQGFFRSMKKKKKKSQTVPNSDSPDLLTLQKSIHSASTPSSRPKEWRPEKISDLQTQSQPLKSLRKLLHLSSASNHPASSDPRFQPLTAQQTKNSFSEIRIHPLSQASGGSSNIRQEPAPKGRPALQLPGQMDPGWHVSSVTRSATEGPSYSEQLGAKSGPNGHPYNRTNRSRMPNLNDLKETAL

[4] = target: Serine/threonine-protein kinase N3 (Homo sapiens, UniProt Q6P5Z2)
[5] = target: Serine/threonine-protein kinase ATR (Homo sapiens, UniProt Q13535)
Sequence of Serine/threonine-protein kinase ATR (Q13535 whole entry): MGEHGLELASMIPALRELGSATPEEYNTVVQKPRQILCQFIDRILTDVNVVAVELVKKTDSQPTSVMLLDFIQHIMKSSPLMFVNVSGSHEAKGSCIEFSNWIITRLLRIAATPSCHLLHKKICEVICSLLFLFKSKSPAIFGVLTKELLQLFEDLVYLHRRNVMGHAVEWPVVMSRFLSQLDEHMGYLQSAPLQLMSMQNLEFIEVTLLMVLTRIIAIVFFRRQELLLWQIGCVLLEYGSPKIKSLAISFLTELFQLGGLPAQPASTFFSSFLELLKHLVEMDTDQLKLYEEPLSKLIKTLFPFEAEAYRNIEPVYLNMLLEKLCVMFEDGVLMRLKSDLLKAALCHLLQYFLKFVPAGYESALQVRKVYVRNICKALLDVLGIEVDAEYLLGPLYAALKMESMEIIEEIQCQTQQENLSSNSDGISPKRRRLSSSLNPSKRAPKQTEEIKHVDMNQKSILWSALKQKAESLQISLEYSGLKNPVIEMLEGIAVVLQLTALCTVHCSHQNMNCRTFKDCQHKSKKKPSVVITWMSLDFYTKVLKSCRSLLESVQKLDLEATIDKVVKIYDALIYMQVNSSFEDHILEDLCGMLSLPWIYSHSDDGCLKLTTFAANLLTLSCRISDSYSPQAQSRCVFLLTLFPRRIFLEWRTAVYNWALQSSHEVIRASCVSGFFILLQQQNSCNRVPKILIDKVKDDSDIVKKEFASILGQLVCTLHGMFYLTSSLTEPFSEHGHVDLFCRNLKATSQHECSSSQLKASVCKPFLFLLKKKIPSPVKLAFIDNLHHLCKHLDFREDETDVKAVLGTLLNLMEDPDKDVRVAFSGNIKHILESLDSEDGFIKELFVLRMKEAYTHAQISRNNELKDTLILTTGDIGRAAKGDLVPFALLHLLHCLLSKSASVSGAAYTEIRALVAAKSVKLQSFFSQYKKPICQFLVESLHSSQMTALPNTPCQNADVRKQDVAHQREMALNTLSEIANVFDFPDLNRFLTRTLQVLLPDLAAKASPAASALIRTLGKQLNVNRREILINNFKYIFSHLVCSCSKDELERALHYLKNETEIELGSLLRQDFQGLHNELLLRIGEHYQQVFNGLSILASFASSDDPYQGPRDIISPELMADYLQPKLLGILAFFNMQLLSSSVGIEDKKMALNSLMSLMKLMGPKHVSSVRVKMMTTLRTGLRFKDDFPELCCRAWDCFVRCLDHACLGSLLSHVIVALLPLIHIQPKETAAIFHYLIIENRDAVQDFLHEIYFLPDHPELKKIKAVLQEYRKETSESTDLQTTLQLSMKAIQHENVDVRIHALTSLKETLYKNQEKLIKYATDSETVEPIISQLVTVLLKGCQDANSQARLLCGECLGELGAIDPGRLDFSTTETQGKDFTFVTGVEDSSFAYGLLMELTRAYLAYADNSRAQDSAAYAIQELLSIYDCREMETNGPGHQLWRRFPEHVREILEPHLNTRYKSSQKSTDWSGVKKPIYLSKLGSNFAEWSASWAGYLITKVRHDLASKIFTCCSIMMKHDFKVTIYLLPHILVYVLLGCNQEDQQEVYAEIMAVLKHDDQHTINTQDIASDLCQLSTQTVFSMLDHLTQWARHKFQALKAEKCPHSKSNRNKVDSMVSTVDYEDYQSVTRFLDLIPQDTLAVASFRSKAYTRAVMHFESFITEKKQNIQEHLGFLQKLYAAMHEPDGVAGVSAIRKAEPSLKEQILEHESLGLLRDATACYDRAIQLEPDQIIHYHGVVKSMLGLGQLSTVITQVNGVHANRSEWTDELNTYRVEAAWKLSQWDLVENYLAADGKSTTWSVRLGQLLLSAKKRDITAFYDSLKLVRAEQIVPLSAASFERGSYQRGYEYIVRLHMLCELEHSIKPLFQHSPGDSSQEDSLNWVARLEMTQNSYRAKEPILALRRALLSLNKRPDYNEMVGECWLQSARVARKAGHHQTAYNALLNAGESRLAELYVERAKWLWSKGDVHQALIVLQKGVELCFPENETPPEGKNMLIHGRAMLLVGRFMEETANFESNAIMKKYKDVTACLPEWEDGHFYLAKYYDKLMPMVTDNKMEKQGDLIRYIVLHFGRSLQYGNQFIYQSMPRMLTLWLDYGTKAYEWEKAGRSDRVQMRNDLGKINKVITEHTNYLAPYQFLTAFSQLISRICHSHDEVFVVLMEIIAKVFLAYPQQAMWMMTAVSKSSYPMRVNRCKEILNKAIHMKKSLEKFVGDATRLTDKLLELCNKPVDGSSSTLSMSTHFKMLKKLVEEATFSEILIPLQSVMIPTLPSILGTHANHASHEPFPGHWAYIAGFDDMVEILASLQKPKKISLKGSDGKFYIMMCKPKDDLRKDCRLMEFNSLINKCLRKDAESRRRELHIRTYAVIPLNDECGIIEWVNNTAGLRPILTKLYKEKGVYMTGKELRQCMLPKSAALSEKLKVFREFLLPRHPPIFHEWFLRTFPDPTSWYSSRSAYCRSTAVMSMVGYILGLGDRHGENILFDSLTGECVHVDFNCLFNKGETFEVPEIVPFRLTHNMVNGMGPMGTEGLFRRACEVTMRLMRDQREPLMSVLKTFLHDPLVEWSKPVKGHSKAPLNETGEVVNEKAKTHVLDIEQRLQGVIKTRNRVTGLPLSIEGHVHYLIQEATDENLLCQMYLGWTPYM

[6] = target: Serine/threonine-protein kinase PLK1 (Homo sapiens, UniProt P53350)
Sequence of Serine/threonine-protein kinase PLK1 (P53350 whole entry): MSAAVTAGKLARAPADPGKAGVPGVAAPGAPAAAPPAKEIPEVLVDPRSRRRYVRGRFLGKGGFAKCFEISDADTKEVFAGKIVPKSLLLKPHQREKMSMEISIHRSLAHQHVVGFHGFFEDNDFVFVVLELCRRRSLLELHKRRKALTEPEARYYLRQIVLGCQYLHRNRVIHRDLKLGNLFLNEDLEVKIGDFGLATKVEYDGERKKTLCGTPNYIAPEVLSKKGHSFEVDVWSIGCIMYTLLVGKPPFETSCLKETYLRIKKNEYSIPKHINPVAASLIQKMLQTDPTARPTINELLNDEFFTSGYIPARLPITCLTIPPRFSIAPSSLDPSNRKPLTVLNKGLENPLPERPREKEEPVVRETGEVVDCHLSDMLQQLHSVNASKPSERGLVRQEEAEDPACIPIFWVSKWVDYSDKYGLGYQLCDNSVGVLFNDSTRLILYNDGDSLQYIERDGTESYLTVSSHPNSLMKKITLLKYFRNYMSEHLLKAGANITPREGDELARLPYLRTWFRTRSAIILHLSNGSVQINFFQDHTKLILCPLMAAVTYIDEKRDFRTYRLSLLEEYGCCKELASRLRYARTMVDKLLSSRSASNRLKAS

Sequence of Misshapen-like kinase 1 (Q8N4C8 whole entry): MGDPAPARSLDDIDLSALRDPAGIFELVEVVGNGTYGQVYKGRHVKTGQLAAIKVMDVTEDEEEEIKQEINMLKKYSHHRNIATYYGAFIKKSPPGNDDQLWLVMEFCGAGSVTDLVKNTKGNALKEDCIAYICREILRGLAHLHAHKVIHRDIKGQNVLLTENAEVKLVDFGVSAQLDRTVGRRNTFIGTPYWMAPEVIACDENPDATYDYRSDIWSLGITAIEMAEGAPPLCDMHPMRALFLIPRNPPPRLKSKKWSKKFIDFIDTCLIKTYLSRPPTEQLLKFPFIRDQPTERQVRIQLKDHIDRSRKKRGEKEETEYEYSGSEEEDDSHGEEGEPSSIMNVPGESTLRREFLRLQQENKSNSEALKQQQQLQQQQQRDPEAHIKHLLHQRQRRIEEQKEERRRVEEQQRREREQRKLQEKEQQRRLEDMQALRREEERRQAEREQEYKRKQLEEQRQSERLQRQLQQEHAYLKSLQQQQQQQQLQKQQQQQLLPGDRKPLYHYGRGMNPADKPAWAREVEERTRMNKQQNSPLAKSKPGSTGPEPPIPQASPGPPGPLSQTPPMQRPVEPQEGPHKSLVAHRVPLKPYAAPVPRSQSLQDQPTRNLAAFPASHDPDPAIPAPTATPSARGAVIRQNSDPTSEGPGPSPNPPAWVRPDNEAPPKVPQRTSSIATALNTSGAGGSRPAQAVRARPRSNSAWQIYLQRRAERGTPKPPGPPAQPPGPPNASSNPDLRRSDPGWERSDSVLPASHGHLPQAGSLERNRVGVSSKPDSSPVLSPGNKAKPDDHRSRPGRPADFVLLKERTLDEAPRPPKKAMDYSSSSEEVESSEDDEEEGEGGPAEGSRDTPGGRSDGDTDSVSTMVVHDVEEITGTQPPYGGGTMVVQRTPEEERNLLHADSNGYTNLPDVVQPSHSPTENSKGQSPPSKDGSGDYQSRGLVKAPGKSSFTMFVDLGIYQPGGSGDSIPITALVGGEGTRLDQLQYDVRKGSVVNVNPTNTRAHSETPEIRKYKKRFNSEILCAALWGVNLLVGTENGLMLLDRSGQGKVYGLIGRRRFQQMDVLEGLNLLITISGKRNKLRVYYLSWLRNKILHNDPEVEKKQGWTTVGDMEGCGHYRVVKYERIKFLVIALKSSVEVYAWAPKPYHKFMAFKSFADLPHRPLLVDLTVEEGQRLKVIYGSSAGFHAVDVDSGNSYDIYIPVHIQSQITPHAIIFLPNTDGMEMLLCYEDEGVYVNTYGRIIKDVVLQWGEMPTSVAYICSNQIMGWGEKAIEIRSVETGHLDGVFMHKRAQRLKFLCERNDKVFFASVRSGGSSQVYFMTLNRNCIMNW

| SMILES | Kd [1] | Kd [2] | Kd [3] | Kd [4] | Kd [5] | Kd [6] |
| --- | --- | --- | --- | --- | --- | --- |
| C[C@H]1CNCCCN1S(=O)(=O)c1cccc2cncc(F)c12 | > 30 µM (inactive) | > 30 µM (inactive) | > 30 µM (inactive) | – | – | – |
| CC(=O)c1cnc2ccc(-c3cc(Cl)c(O)c(Cl)c3)nc2c1N[C@H]1CC[C@H](CN(C)C)CC1 | – | – | – | > 30 µM (inactive) | – | – |
| CCNC(=O)C#Cc1ccc2c(c1)NC(=O)/C2=C(\Nc1ccc(CN(C)C)cc1)c1ccccc1 | > 30 µM (inactive) | – | 0.02 µM (active) | – | > 30 µM (inactive) | – |
| COCc1c(-c2ccc(NC(=O)Nc3cc(C(F)(F)F)ccc3F)c(F)c2)c2c(N)ncnn2c1CN1CCOCC1 | – | – | > 30 µM (inactive) | > 30 µM (inactive) | > 30 µM (inactive) | > 30 µM (inactive) |
| COc1cc(Nc2ncc3c(n2)-c2ccc(Cl)cc2C(c2c(F)cccc2OC)=NC3)ccc1C(=O)O [ALISERTIB] | – | > 30 µM (inactive) | – | > 30 µM (inactive) | – | – |
| Cc1nc(NC(=O)N2CCC[C@H]2C(N)=O)sc1-c1ccnc(C(C)(C)C(F)(F)F)c1 [ALPELISIB] | > 30 µM (inactive) | – | – | – | > 30 µM (inactive) | – |
| O=C(Nc1c[nH]nc1-c1nc2cc(CN3CCOCC3)ccc2[nH]1)NC1CC1 [AT-9283] | > 30 µM (inactive) | > 30 µM (inactive) | > 30 µM (inactive) | > 30 µM (inactive) | – | > 30 µM (inactive) |
| C=CC(=O)Nc1cc2c(Nc3ccc(F)c(Cl)c3)ncnc2cc1C#CC(C)(C)N1CCN(C)CC1 [AV-412 FREE BASE] | – | – | > 30 µM (inactive) | > 30 µM (inactive) | > 30 µM (inactive) | – |
| CNC(=O)c1ccccc1Sc1ccc2c(/C=C/c3ccccn3)n[nH]c2c1 [AXITINIB] | – | – | – | > 30 µM (inactive) | – | – |
| COc1cc([C@@H]2c3cc4c(cc3[C@H](O)[C@H]3COC(=O)[C@@H]23)OCO4)cc(OC)c1OC [AXL-1717] | – | > 30 µM (inactive) | – | – | – | – |
| NC(=O)Nc1cc(-c2cccc(F)c2)sc1C(=O)N[C@H]1CCCNC1 [AZD-7762] | – | > 30 µM (inactive) | – | – | – | – |
| CCS(=O)(=O)N1CCN(c2ccc(Nc3ncc(C(N)=O)c(NC4CC4)n3)cc2)CC1 [Cerdulatinib Hydrochloride] | > 30 µM (inactive) | – | > 30 µM (inactive) | – | > 30 µM (inactive) | – |
| Cn1cc(C2=C(c3cn(C4CCN(Cc5ccccn5)CC4)c4ccccc34)C(=O)NC2=O)c2ccccc21 [ENZASTAURIN] | – | – | – | – | > 30 µM (inactive) | – |
| Cc1nc2cc(-n3ncc(C(=O)c4cc5ccccc5[nH]4)c3N)ccc2[nH]1 [FGFR INHIBITOR DEBIO 1347] | – | – | > 30 µM (inactive) | – | – | – |
| O=C(Nc1nc2cccc(-c3ccc(CN4CCS(=O)(=O)CC4)cc3)n2n1)C1CC1 [FILGOTINIB] | > 30 µM (inactive) | – | – | – | > 30 µM (inactive) | > 30 µM (inactive) |
| Cc1cccc(-c2nn3c(c2-c2ccnc4ccc(C(N)=O)cc24)CCC3)n1 [GALUNISERTIB] | 0.018 µM | > 30 µM (inactive) | – | – | > 30 µM (inactive) | > 30 µM (inactive) |
| CN(C[C@@H]1COCCO1)S(=O)(=O)Nc1ccc2ccc3ncc(-c4cnn(C)c4)cc3c(=O)c2c1 [MK-2461] | > 30 µM (inactive) | – | – | – | – | – |
| Cn1cc(-c2cnc3ccc4ccc(CS(=O)(=O)NCc5ccccn5)cc4c(=O)c3c2)cn1 [MK-8033] | – | – | – | > 30 µM (inactive) | > 30 µM (inactive) | > 30 µM (inactive) |
| COc1ncc(-c2ccc3nccc(-c4ccnnc4)c3c2)cc1NS(=O)(=O)c1ccc(F)cc1F [OMIPALISIB] | > 30 µM (inactive) | > 30 µM (inactive) | – | – | > 30 µM (inactive) | > 30 µM (inactive) |
| Cc1[nH]c(/C=C2\C(=O)Nc3ccccc32)c(C)c1CCC(=O)O [ORANTINIB] | – | > 30 µM (inactive) | > 30 µM (inactive) | > 30 µM (inactive) | – | – |
| Cc1nc(Nc2n[nH]c3c2CN(C(=O)N[C@H](CN(C)C)c2ccccc2)C3(C)C)c2sccc2n1 [PF-03758309] | > 30 µM (inactive) | – | 1.93 µM (active) | > 30 µM (inactive) | > 30 µM (inactive) | > 30 µM (inactive) |
| N#CC1(c2ccc(NC(=O)c3cccnc3NCc3ccncc3)cc2)CCCC1 [RIVOCERANIB] | – | > 30 µM (inactive) | > 30 µM (inactive) | – | > 30 µM (inactive) | – |
| O=C(NOCCO)c1cc(CN2OCCCC2=O)c(F)c(F)c1Nc1ccc(I)cc1F [RO-4987655] | – | – | – | > 30 µM (inactive) | > 30 µM (inactive) | – |
| CN1CCN(CCOc2cc(OC3CCOCC3)c3c(Nc4c(Cl)ccc5c4OCO5)ncnc3c2)CC1 [SARACATINIB] | – | > 30 µM (inactive) | – | > 30 µM (inactive) | > 30 µM (inactive) | > 30 µM (inactive) |
| O=C(Cc1ccc(-c2ccc(OCCN3CCOCC3)cc2)cn1)NCc1ccccc1 [TIRBANIBULIN] | > 30 µM (inactive) | – | – | – | – | > 30 µM (inactive) |
| Cn1ncc(Cl)c1-c1cc(C(=O)N[C@H](CN)Cc2ccc(F)c(F)c2)oc1Cl [UPROSERTIB] | – | > 30 µM (inactive) | – | – | – | – |
| C[C@@H](N)c1ccc(C(=O)Nc2ccnc3[nH]ccc23)cc1 [Y-39983] | – | – | > 30 µM (inactive) | > 30 µM (inactive) | > 30 µM (inactive) | > 30 µM (inactive) |
| CN1C/C=C/CCOc2cccc(c2)-c2ccnc(n2)Nc2cccc(c2)C1 [ZOTIRACICLIB] | – | – | > 30 µM (inactive) | – | > 30 µM (inactive) | – |

Next, values leading:

| Kd [1] | Kd [2] | Kd [3] | Kd [4] | Kd [5] | Kd [6] | SMILES |
| --- | --- | --- | --- | --- | --- | --- |
| > 30 µM (inactive) | > 30 µM (inactive) | > 30 µM (inactive) | > 30 µM (inactive) | – | > 30 µM (inactive) | Cc1cc(C(=O)NOCCO)c(Nc2ccc(I)cc2F)n(C)c1=O [AZD-8330] |
| – | > 30 µM (inactive) | > 30 µM (inactive) | – | > 30 µM (inactive) | > 30 µM (inactive) | CCn1c(C(=O)N(C2CC2)C2CC2)cc2c3c(ncn3C)c(Nc3cc(C)n(C)n3)nc21 [BMS-911543] |
| > 30 µM (inactive) | > 30 µM (inactive) | > 30 µM (inactive) | > 30 µM (inactive) | – | > 30 µM (inactive) | C#Cc1cccc(Nc2ncnc3cc(OC)c(OCCCCCCC(=O)NO)cc23)c1 [CUDC-101] |
| – | – | – | > 30 µM (inactive) | > 30 µM (inactive) | – | C[C@@H](Oc1cc(-n2cnc3ccc(CN4CCN(C)CC4)cc32)sc1C(N)=O)c1ccccc1C(F)(F)F [GSK-461364] |
| – | > 30 µM (inactive) | > 30 µM (inactive) | > 30 µM (inactive) | – | – | CCn1cc(-c2ccnc3[nH]c(-c4cccc(CN(C)C)c4)cc23)c(-c2ccc(NC(=O)N(C)C)cc2)n1 [GSK-1070916] |
| – | – | > 30 µM (inactive) | > 30 µM (inactive) | > 30 µM (inactive) | > 30 µM (inactive) | COc1ccc(S(=O)(=O)N(C(C)=O)c2ccccc2/C=C/c2cc[n+]([O-])cc2)cc1 [HMN-214] |
| – | > 30 µM (inactive) | > 30 µM (inactive) | > 30 µM (inactive) | > 30 µM (inactive) | – | NC(=O)c1c(OCc2c(F)cc(Br)cc2F)nsc1NC(=O)NCCCCN1CCCC1 [OSI-632] |
| > 30 µM (inactive) | – | > 30 µM (inactive) | – | – | – | Cn1cc(-c2cnn3c(N)c(Br)c([C@@H]4CCCNC4)nc23)cn1 [SCH-900776] |
| – | > 30 µM (inactive) | > 30 µM (inactive) | – | > 30 µM (inactive) | > 30 µM (inactive) | CC(C)c1cc(CNc2nc(Nc3cc(C4CC4)[nH]n3)cc(N3CCN(C)CC3)n2)on1 [XL-228] |
